Test results reported in patent publication US8664276B2, “Stilbene analogs and methods of treating cancer” (University of Kentucky Research Foundation, priority 2011, dated 2014).

Tests used:
MAT2A [1] = biological target: T1, MAT2A (Homo sapiens, UniProt P31153); experiment: Cell based SAM and SAH analysis in LS174 colon cancer cells (LC-MS/MS); parameters: endogenous in cells; host or cells: LS174T; conditions: 10 μM of 4r versus 30 μM of resveratrol
Procedure: (§1) SAM and SAH analysis by LC-MS/MS. The LC-MS/MS system consisted of two Varian ProStar 210 LC Pumps coupled with a Varian 1200L triple quadrupole mass spectrometer. The separation was performed on a Hypercarb column (50 mm×2.1 mm, […], Thermo Scientific #35003-052130). Gradient elution started with 98% solution A (0.1% formic acid in water), followed by an increase to 38% solution B (0.1% formic acid in acetonitrile) in 8 min. The column was than flushed with 90% B for 5 min and regenerated with 98% A for another 8 min. The flow rate was 0.25 mL/min. Between the 3rd and 11th min, the eluent was switched to the ion source of the mass spectrometer. The precursor product transitions for SAM (m/z 399→250), SAH (m/z 385→250) and [d-4]-SAH (m/z 389→136) were monitored. The optimized ion source parameters were: Capillary Voltage: 32 V for both SAM and SAH, Collision energy: 9 V and 7V for SAM and SAH, respectively, Needle voltage: 5000 V and the Shield voltage: 600V. Nitrogen was used as the drying gas at a temperature of 300° C. and the interface heater was set to 50° C. The drying gas and nebulizing gas were set to 20 and 50 psi, respectively.
Cell based SAM analysis. […] 5 ul of supernatants were analyzed by LC-MS/MS using a modified method based on a previous publication (see Krijt et al., J Chromatogr B Analyt Technol Biomed Life Sci 877, 2061-6, (2009)). […]

MAT2A [2] = biological target: T1, MAT2A; experiment: In-vitro SAM synthesis by MAT2A (LC-MS/MS); assay type: biochemical; parameters: GST (N); made in house
Procedure: as §1
SAM synthesis. […] purified MAT2A was incubated with 1 mM L-methionine and 1 mM ATP in […] reaction solution (50 mM Tris.Cl, 50 mM KCl, 10 mM MgCl2) for 5 min at 25° C. […] SAM was analyzed by LC-MS/MS. […]

LS174 tumor xenografts = experiment: LS174 tumor xenograft in nude mice; assay type: in vivo
Procedure: Tumor xenograft in nude mice. LS174 or HT29 colon cancer cells (2×10^6) were injected subcutaneously into both flanks of 6-8 week C57BL/6J athymic nude mice as described in Zhang et al., Mol Cell Biol 2006, 26, 2055-2064. Compound 4r or 4dd was dissolved in corn oil or PEG400. The mice were treated with 20 mg/kg/day of 4r by ip injection or gavage (50 μl/mouse). Control mice were treated with same volume of corn oil or PEG400. The body weight and tumor growth were analyzed twice weekly for one month. Tumor size was measured using digital caliper. The tumor volume was calculated by the formula: V=½LW^2 (mm^3).
In this example, the effects of the stilbene analogs of the present disclosure on CRC cells growth was analyzed. […] To test the effects of compound 4r on tumor growth in vivo, LS174 cells were injected subcutaneously into the flanks of athymic nude mice, which had been randomized into two groups. One group of mice was treated with compound 4r (20 mg/kg/day) dissolved in corn oil by intraperitoneal (ip) injection. The control mice were treated with the same volume of corn oil (50 μL) by ip injection. The mice were weighted and tumors measured twice weekly.

LS174 CRC cells = experiment: CRC cell proliferation assay (Vi-Cell); assay type: cell-based
Procedure: Luciferase and cell proliferation assay. HEK293T cells were transiently transfected in a 12-well plate with 0.2 μg of the Super8xTOPFlash reporter and 0.05 μg of Renilla luciferase reporter. Culture medium was changed after 12 h. After 6 h, cells were treated with DMSO or Wnt inhibitors for 12 h, and then treated with 25 mM LiCl or Wnt conditioned medium. After 12 h, cells were harvested and luciferase activity measured by Dual-luciferase Reporter Assay System (Promega, Madison Wis.). All conditions were done in triplicate and each experiment was carried out at least two times. For cell proliferation assay, CRC cells were treated with DMSO or inhibitors for 2d and 4d. The cell numbers and viability were analyzed by Vi-Cell Cell Viability Analyzer.
Western blot and cell proliferation assay. The activity of fluorinated N,N-dialkylaminostilbenes (FIDAS or FIDAS agents) on Wnt signaling activity in cancer cells were analyzed by Western blot with antibodies against Wnt target genes, such as c-Myc, Axin2. The effects of FlDAS agents on cancer cell growth were analyzed using Cell Viability Analyzer (Beckman Coulter, Vi-Cell XR). These assays have been described previously (see Zhang et al., J. of Med. Chem. 54, 1288-1297 (2011)).

With CN(C)c1ccc(/C=C/c2c(F)cccc2F)cc1 [4r, (E)-4-(2,6-Difluorostyryl)-N,N-dimethylaniline] as the compound, how does the “MAT2A activity (SAM levels) in LS174 cells versus resveratrol” value (MAT2A [1]) read?
The value was “more significantly than 30 μM of resveratrol”.

What about the “MAT2A activity in SAM synthesis” value (MAT2A [2]) of the same compound?
Its value is “inhibit MAT2A activity”.

What about the “body weight versus control mice” value (LS174 tumor xenografts; 20 mg/kg/day ip in corn oil, within one month) of the same compound?
The value was “no significant difference”.

What about the “growth of tumor xenografts” value (LS174 tumor xenografts; LS174, 20 mg/kg/day ip in corn oil) of the same compound?
Its value is “significantly inhibited”.

What about the “LS174 cell proliferation at nanomolar concentrations” value (LS174 CRC cells; 0.1, 0.3 and 1 μM (FIG. 7A)) of the same compound?
Its value is “inhibited LS174 cell proliferation at nanomolar concentrations”.

And the “CRC cell growth inhibition compared with other compounds” value (LS174 CRC cells; cell proliferation assay)?
The value was “more potent than compound 4e”.
